Assays:
Format in all cases: cell-based, Human
[1] = test system: MCF7 cells; test: Mitochondrial staining (MitoTracker Deep Red, microscopy); conditions: 10 µM, 2 days or 5 days
Protocol: One hundred thousand MCF7 cells were seeded onto coverslips in 12-well plates. When cells were attached, mDIVI1 and vehicle treatments were performed in triplicate. After 2 days and 5 days, mitochondria were labeled by incubating cells for 15 min at 37° C with 25 nM of MitoTracker DeepRed (M22426, Invitrogen) diluted in PBS ([…], Sigma). Then, cells were washed with PBS, fixed in 2% paraformaldehyde (28908, Thermo Scientific) in PBS for 30 minutes at room temperature and mounted with ProLong® Gold Antifade Mountant reagent with DAPI (P36935, Invitrogen, Inc.). Immunofluorescence pictures were taken in a Leica gated Stimulated Emission Depletion Microscopy (gSTED) with additional confocal and multi-photon illumination (room rg106).

[2] = test system: MCF7 cells; test: Total ROS (CM-H2DCFDA, flow cytometry); conditions: 24, 48 hours or 5 days
Protocol: For both assays, 2 × 10^5 MCF7 cells were seeded in 35 mm plates. When cells were attached, either vehicle or mDIVI1 were added to the cells for 24, 48 hours or 5 days in triplicate. Reactive oxygen species (ROS) production was measured using CM-H2DCFDA (C6827, Invitrogen). Briefly, cells were incubated for 20 minutes at 37° C with 1 µM CM-H2DCFDA diluted in PBS and then placed in complete media for 20 minutes at 37° C in the dark, to render the dye fluorescent, according to the manufacturer. Mitochondrial superoxide was measured using MitoSOX Red Mitochondrial Superoxide Indicator (M36008, ThermoFisher Scientific). Briefly, cells were incubated for 10 minutes at 37° C in the dark with 5 µM MitoSOX diluted in PBS, according to the manufacturer. ROS signal and MitoSOX signal was quantified as mean fluorescent intensity of the viable cell population in a Fortessa flow cytometer (BD Bioscience). Results were analysed using FlowJo software.

[3] = test system: MCF7 cells; test: Label-free semi-quantitative proteomics; conditions: 10 µM, 48 hours vs vehicle
Protocol: HPLC gradient grade acetonitrile was obtained from Fisher Scientific. Briefly, 2 × 10^6 MCF7 cells were seeded in 15 cm plates until cells were attached. […] As control, vehicle-treated cells were processed in parallel. After 48 hours of treatment, cells were lysed in RIPA buffer (R0278, Sigma) and kept at 4° C for 20 minutes with rotation. Lysates were cleared by centrifugation for 10 minutes at 10,000 × g and supernatants were collected and kept frozen at −80° C. Lysate samples were thawed to room temperature and their concentrations equalised to 1 µg/µL (50 µL volume) with RIPA buffer, and further processed for trypsin digestion by sequential reduction of disulphide bonds with TCEP and alkylation with MMTS. Briefly, 1 µL benzonase (Novagen) was added to the 50 µL aliquot and placed on ice for 15 minutes. The sample was then taken to dryness using a SpeedVac, and resuspended in 22.5 µL trypsin reaction buffer (40 mM ammonium bicarbonate and 9% acetonitrile). One µL of 50 mM TCEP solution was added to each sample, mixed briefly and placed on a heater block at 60° C for 60 minutes. After cooling to room temperature, 0.5 µL of 200 mM MMTS solution was added to each sample and allowed to react for 15 minutes. Trypsin was added in two waves to ensure efficient digestion of the sample. Firstly, 20 µg of sequencing grade trypsin was resuspended in 1800 µL of trypsin reaction buffer; 225 µL of this solution were added to each sample for digestion, and the reactions were left at 37° C overnight with shaking (600 rpm). The following morning, a further aliquot of trypsin was added. Two ml of trypsin reaction buffer was added to […] of sequencing grade trypsin; 250 µL of this solution were added to each of the digest samples from overnight, and the reactions were left at 37° C for 4 hours with shaking (600 rpm). […] The digested solution was diluted in 7.5 mL of acetonitrile containing 0.3% formic acid. PolyhydroxyethylA SPE 12 µm, 300A, 300mg cartridges (obtained from PolyLC) were used for the HILIC procedure. Prior to use, cartridges required an overnight soak in 50 mM formic acid followed by rinsing with water the following day. […] The diluted samples were loaded onto the cartridges and washed with a further 10 mL Buffer A. Finally, peptides were eluted in 1 mL Buffer C (9 parts Buffer B plus 1 part Buffer A) and the samples dried on a Speedvac to remove organic solvent prior to LC-MS/MS analysis. Lyophilised digests were resuspended in 50 µL of 0.1% TFA to give an approximate concentration of 1 µg/µL. One µL injection volumes were used throughout resulting in an on-column peptide loading of approximately 1 µg per injection. Analysis was performed in quintuplicate for each sample. All LC-MS/MS analyses were performed on an LTQ Orbitrap XL mass spectrometer coupled to an Ultimate 3000 RSLCnano system (Thermo Scientific). One µL injection volumes were used throughout and samples loaded directly onto the analytical column, PepMap RSLC C18, 2 µm × 75 µm id × 50 cm (Thermo Scientific). The composition (v/v) of LC buffers were as follows; […] Peptides were loaded directly onto the column at a flow rate of 400 nl/min with an initial mobile phase composition of 1% B. […] The column was then allowed to re-equilibrate to 1% B for a total analysis time of 74 minutes. The mass spectrometer was instructed to perform data dependent acquisition on the top six precursor ions, which were measured in the Orbitrap FTMS detector over the mass range 370–1200 m/z, at a nominal resolution of 60,000. […] Gas-phase fractionation was performed on the five replicate injections such that MS/MS data was collected for precursor ion range 370–494 m/z Injection 1, 494–595 m/z Injection 2, 595–685 m/z Injection 3, 685–817 m/z Injection 4 and 817–1200 m/z Injection 5. Xcalibur raw data files acquired on the LTQ-Orbitrap XL were directly imported into Progenesis LCMS software (Waters Corp) for peak detection and alignment. Data were analysed using the Mascot search engine. […]

[4] = test system: MCF7 cells; test: Mitochondrial mass quantification (MitoTracker Deep Red, flow cytometry); conditions: 50 µM, 5 days, vs vehicle
Protocol: To measure mitochondrial mass, cells were stained with MitoTracker Deep Red (M22426, Invitrogen). Briefly, 2 × 10^5 MCF7 cells per well were seeded in 6-well plates. When cells were attached, mDIVI1 and vehicle treatments were added for 2 days or 5 days in triplicate. Cells were then incubated for 15 min at 37° C with the 10 nM Mitotracker Deep Red probe diluted in PBS ([…], Sigma). All subsequent steps were performed in the dark. Cells were washed in PBS, harvested, and re-suspended in PBS. Mitotracker signal was quantified as mean fluorescent intensity of the viable cell population in a Fortessa flow cytometer (BD Bioscience). Results were analyzed using FlowJo software.

For `COc1cc(-n2c(=S)[nH]c3ccccc3c2=O)c(Cl)cc1Cl` [mDIVI1, 3-(2,4-Dichloro-5-methoxyphenyl) 2,3-dihydro 2-thioxo-4(1H) quinazolinone], the mitochondrial morphology [1] was “more interconnected mitochondria”, the “general oxidative stress levels (total ROS)” value [2] was “did not change” and the “BMP7 expression change (proteomics)” value [3] was -47.17. The “CELSR2 expression change (proteomics)” value [3] was −1.6, the “EPCAM expression change (proteomics)” value [3] was −1.58 and the “EphA2 expression change (proteomics)” value [3] was -1.74. For the same compound, the “F11 receptor expression change (proteomics)” value [3] was −1.70, the “LAMP1 upregulation (proteomics)” value [3] was 2.83 and the “STAT3 expression change (proteomics)” value [3] was -1.83. The “ZO-1 expression change (proteomics)” value [3] was −1.62, the “collagen type IV upregulation (proteomics)” value [3] was 1.9 fold and the “desmoplakin expression change (proteomics)” value [3] was −4.58. For the same compound, the “junction plakoglobin expression change (proteomics)” value [3] was −1.65, the “keratin 8 expression change (proteomics)” value [3] was −5.24 and the “keratin 18 expression change (proteomics)” value [3] was −12.21. For the same compound, the “Hexokinase 1 (HK1) change in expression” value ([3]; Glycolysis) was “↓Infinite” and the “Mitotracker Deep Red mean fluorescence intensity (mitochondrial mass)” value [4] was “significantly higher”.

Source: paper PMC5862576, “Mitochondrial fission as a driver of stemness in tumor cells: mDIVI1 inhibits mitochondrial function, cell migration and cancer stem cell (CSC) signalling” (Oncotarget, 2018)
